Measurements from the NIST ThermoML archive (doi:10.1016/j.jct.2013.11.028).
± gives the expanded uncertainty stated by the source.

Experiments:
[1] = 298.2 K; 101.33 kPa; Liquid; Vibrating tube method
[2] = refractive index (Na D-line) (dimensionless); details: 298.2 K; 101.33 kPa; Liquid; Standard Abbe refractometry

mass density [1] [kg/m3] | refractive index [2] | SMILES
809.05 ± 0.4 | 1.4085 ± 0.0008 | CC(C)CCO [3-methylbutan-1-ol]
952.68 ± 0.23 | 1.3977 ± 0.0008 | CCCC(=O)O [butanoic acid]
810.92 ± 0.24 | 1.4073 ± 0.0008 | CCCCCO [pentan-1-ol]
– | 1.3325 ± 0.0008 | O [water]

SMILES | mass density [1] [kg/m3] | refractive index [2]
CCCCO [butan-1-ol] | 805.6 ± 0.24 | 1.3968 ± 0.0008
